Data on 1 molecule can be found in publication PMC10296061, “Inhibition of the Mitochondrial Carnitine/Acylcarnitine Carrier by Itaconate through Irreversible Binding to Cysteine 136: Possible Pathophysiological Implications” (Biomolecules, 2023).

In the assay the target is T1, CAC C23V/C58V/C89S/C136V/C155V/C283S (C-less) mutant (Rattus norvegicus, UniProt P97521, C136V/C155V/C23V/C283S/C58V/C89S).
T1 construct: made in house; host or cells: E. coli C0214
T1 sequence (P97521 1-301 C23V/C58V/C89S/C136V/C155V/C283S): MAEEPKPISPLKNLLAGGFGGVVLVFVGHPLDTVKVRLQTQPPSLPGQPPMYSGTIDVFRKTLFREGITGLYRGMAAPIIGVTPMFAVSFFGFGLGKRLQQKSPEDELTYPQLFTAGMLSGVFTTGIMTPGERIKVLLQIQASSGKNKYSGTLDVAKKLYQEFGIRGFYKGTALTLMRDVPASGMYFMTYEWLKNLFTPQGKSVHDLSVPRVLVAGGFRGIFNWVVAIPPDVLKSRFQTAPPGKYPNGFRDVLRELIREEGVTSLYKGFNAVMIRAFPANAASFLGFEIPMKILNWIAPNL
As to the kind of experiment: Transport assay in proteoliposomes, C-less CAC mutant. The format is biochemical. As to the method: As previously described, the pMW7-WTratCAC recombinant plasmid was used for over-expressing the rat CAC [22]. The overlap extension method was used to introduce the mutations; in the main time, NdeI and HindIII restriction sites were also added using appropriate primers. The PCR products were purified by the QIAEX II Gel Extraction Kit (QIAGEN) and digested with NdeI and HindIII and then ligated into the pMW7. All mutations were verified by DNA sequencing. The resulting plasmid constructs were transformed into E. coli C0214. Overexpression, inclusion body fraction preparation, and purification of the CAC proteins were performed as previously described.
As previously described, recombinant CAC (WT and mutants) and ORC1 proteins were used for proteoliposome formation. For experiments with native CAC, ORC1, or ANT proteins, rat liver mitochondria, or HeLa cell mitochondria, the latter for the CAC alone, were first purified using the standard procedure of cell disruption and differential centrifugation. Then proteins were extracted using 3% Triton X-100 and reconstituted as described for the recombinant proteins. The concentration of intraliposomal carnitine and ornithine was 15 mM and 30 mM, respectively, in all samples.
To test the transport activity of the CAC, 550 μL of proteoliposomes was passed through a Sephadex G-75 column to remove the external substrate. Six hundred μL of the turbid eluate was collected, divided into samples of 100 μL each, and used for transport measurement by the inhibitor-stop method. Transport was started by adding 0.1 mM [^3H]carnitine ([^3H]ornitine or [^3H]ATP) to proteoliposome samples and stopped with 1.5 mM NEM (N-ethylmaleimide) at the indicated time interval. In the control samples, NEM was added with the labeled substrate at time zero. Transport rates were measured in 10 min, i.e., within the initial linear range of the time course, at 25 °C. After terminating the transport reaction, the external substrate was removed by chromatography on the Sephadex G-75 column, and the intraliposomal radioactivity was measured. The experimental values were corrected by subtracting the controls.
Figure 3 Identification of residue responsible for itaconate inhibition. (a) Dose–response analysis of the Cys mutants of CAC for the inhibition by itaconate was performed. Transport activity of the WT (○), C136A (●), C155A (Δ), C23V/C58V/C89S/C155V/C283S (▲), and C23V/C58V/C89S/C136V/C155V/C283S (□) was measured by adding 0.1 mM [^3H]carnitine after treatment by itaconate at the indicated concentrations. Transport activity (µmol/10 min/mg) is: WT 1.80 ± 0.31; C136A 0.91 ± 0.10; C155A 1.00 ± 0.17; C23V/C58V/C89S/C155V/C283S 1.02 ± 0.159; C23V/C58V/C89S/C136V/C155V/C283S 0.71 ± 0.22. (b) Dose–response analysis of proteoliposomes reconstituted native (○) or recombinant ORC (●) incubated with itaconate at the indicated concentrations. Transport activity was measured by adding 0.1 [^3H]ornithine, respectively, as described in Materials and Methods. The data are expressed as a percent of the controls (no addition of itaconate) and are means ± SD from three independent experiments.
Figure 4 Lysine contribution to CAC inhibition by itaconate. Protection of PLP (pyridoxal phosphate) from inhibition by itaconate on C-less CAC was carried out. C-less mutant (i.e., C23V/C58V/C89S/C136V/C155V/C283S) was reconstituted into proteoliposomes and treated or not treated with 30 mM PLP for 10 min (“Contr” or “PLP” column, respectively). […]

Consider `C=C(CC(=O)O)C(=O)O` [itaconate], for which the “effect on PLP pretreated (protected) C-less CAC” value (15 mM itaconate added to 30 mM PLP pretreated protein, reactants removed by G-75) is “inefficacy”. Also, the “effect on C-less CAC transport” value (15 mM itaconate, no PLP preincubation) was “inhibited”. Besides, the IC50 (commonly the concentration at which inhibition is half-maximal) (C-less mutant, read-out: IC50 for itaconate inhibition) turned out to be 15 ± 2.4 mM.
